≈ marks a conversion by molar mass, not a printed value. One block for each compound: values may come before it.
What was measured:
Experiment in all cases: ≥ marks a high value that may be exact or a test limit, other limits are often not marked, values filed in µg/mL are converted to µM
[1] = test system: Staphylococcus aureus ATCC 12493
[2] = test system: Escherichia coli NCTC 10418
[3] = test system: Staphylococcus aureus ATCC 25923
[4] = test system: Escherichia coli ATCC 25922
[5] = test system: Candida albicans NCPF 1467
[6] = test system: Staphylococcus aureus NCTC 10788
[7] = test system: Pseudomonas aeruginosa PAO1
Klebsiella pneumoniae = test system: Klebsiella pneumoniae
[8] = test system: Staphylococcus aureus NCTC 8325-4
Escherichia coli K-12 = test system: Escherichia coli K-12
Staphylococcus aureus = test system: Staphylococcus aureus
[9] = test system: Pseudomonas aeruginosa ATCC 27853
Enterobacter cloacae = test system: Enterobacter cloacae
[10] = test system: Salmonella enterica subsp. enterica serovar Typhi
Bacillus subtilis = test system: Bacillus subtilis
Escherichia coli = test system: Escherichia coli
[11] = test system: Candida albicans ATCC 90028
Pseudomonas aeruginosa = test system: Pseudomonas aeruginosa
Bacillus anthracis = test system: Bacillus anthracis
Bacillus cereus = test system: Bacillus cereus
[12] = test system: Candida albicans ATCC 2002
[13] = test system: Staphylococcus aureus ATCC 2592
[14] = test system: Pseudomonas aeruginosa ATCC 9027
Listeria innocua = test system: Listeria innocua
Micrococcus luteus A270 = test system: Micrococcus luteus A270
[15] = test system: Salmonella enterica subsp. enterica serovar Enteritidis

SMILES: CC(C)C[C@H](NC(=O)[C@H](C)NC(=O)[C@H](CC(C)C)NC(=O)[C@H](CO)NC(=O)[C@H](CC(C)C)NC(=O)[C@@H](N)Cc1ccccc1)C(=O)N[C@@H](C)C(=O)N[C@@H](C)C(=O)N[C@@H](CC(C)C)C(=O)N1CCC[C@H]1C(=O)N[C@@H](CCCCN)C(=O)N[C@@H](Cc1ccccc1)C(=O)N[C@@H](CC(C)C)C(=O)N[C@H]1CSSC[C@@H](C(=O)O)NC(=O)[C@H](CCCCN)NC(=O)[C@H](CCCCN)NC(=O)[C@H](Cc2ccccc2)NC(=O)[C@H](C(C)C)NC(=O)[C@H](CC(C)C)NC1=O [FLSLALAALPKFLCLVFKKC]
MIC [1]: ≥ 32 µM
MIC [2]: ≥ 512 µM
MIC [3]: 15 µM (≈ 33.4 µg/mL)
MIC [4]: 15 µM (≈ 33.4 µg/mL)
MIC [5]: ≥ 32 µM
MIC [6]: ≥ 32 µM

SMILES: CC(C)C[C@H](NC(=O)[C@H](CC(C)C)NC(=O)[C@H](CCCCN)NC(=O)[C@H](CCCCN)NC(=O)[C@H](CC(C)C)NC(=O)[C@H](CC(C)C)NC(=O)[C@H](CCCCN)NC(=O)[C@H](CCCCN)NC(=O)[C@@H](N)CC(C)C)C(=O)N[C@@H](CCCCN)C(N)=O [LKKLLKKLLK]
MIC [7]: 62.5 µM (≈ 76.5 µg/mL)
MIC (Klebsiella pneumoniae): > 500 µM
MIC [8]: ≥ 500 µM
MIC (Escherichia coli K-12): 31.3 µM (≈ 38.3 µg/mL)

SMILES: CC[C@H](C)[C@H](NC(=O)[C@H](C)NC(=O)[C@H](CO)NC(=O)[C@@H]1CCCN1C(=O)[C@@H](NC(=O)[C@H](CC(C)C)NC(=O)[C@H](CO)NC(=O)[C@H](Cc1ccccc1)NC(=O)[C@H](CC(C)C)NC(=O)[C@@H](N)Cc1ccccc1)[C@@H](C)CC)C(=O)N[C@@H](C)C(=O)NCC(=O)N[C@@H](CC(C)C)C(=O)N[C@H](C(=O)N[C@@H](CO)C(=O)N[C@@H](C)C(=O)N[C@H](C(=O)N[C@@H](CCCN=C(N)N)C(=O)N[C@@H](CC(N)=O)C(N)=O)[C@@H](C)CC)C(C)C [FLFSLIPSAIAGLVSAIRN]
MIC [2]: ≥ 257 µM
MIC [5]: 16.1 µM (≈ 32 µg/mL)
MIC [6]: 8.04 µM (≈ 16 µg/mL)

SMILES: CC(C)C[C@H](NC(=O)[C@H](CCCCN)NC(=O)[C@H](Cc1ccccc1)NC(=O)[C@H](CC(C)C)NC(=O)[C@@H](NC(=O)[C@@H]1CCCN1C(=O)[C@@H](N)CC(C)C)C(C)C)C(=O)N[C@@H](C)C(=O)N[C@@H](CO)C(=O)N[C@@H](CCCCN)C(=O)N[C@H](C(=O)N[C@@H](Cc1ccccc1)C(=O)N1CCC[C@H]1C(=O)N[C@@H](C)C(=O)N[C@H](C(=O)N[C@@H](Cc1ccccc1)C(=O)N[C@@H](CO)C(=O)N[C@@H](CO)C(=O)N[C@@H](CC(C)C)C(=O)N[C@@H](CCCCN)C(=O)O)C(C)C)C(C)C [LPVLFKLASKVFPAVFSSLK]
MIC (Bacillus anthracis): ≥ 58.4 µM
MIC (Staphylococcus aureus): 58.4 µM (≈ 128 µg/mL)
MIC (Escherichia coli): 117 µM (≈ 256 µg/mL)
MIC (Bacillus cereus): 29.2 µM (≈ 64 µg/mL)

SMILES: CC(C)C[C@H](NC(=O)[C@H](CC(C)C)NC(=O)[C@H](CC(C)C)NC(=O)[C@@H]1CCCN1C(=O)[C@H](CC(C)C)NC(=O)[C@@H](N)Cc1ccccc1)C(=O)N[C@@H](CO)C(=O)N[C@@H](C)C(=O)N[C@@H](CC(C)C)C(=O)N1CCC[C@H]1C(=O)N[C@@H](CO)C(=O)N[C@@H](Cc1ccccc1)C(=O)N[C@@H](CC(C)C)C(=O)N[C@H]1CSSC[C@@H](C(=O)O)NC(=O)[C@H](CCCCN)NC(=O)[C@H](CCCCN)NC(=O)[C@H](Cc2ccccc2)NC(=O)[C@H](C(C)C)NC(=O)[C@H](CC(C)C)NC1=O [FLPLLLSALPSFLCLVFKKC]
MIC [1]: ≥ 512 µM
MIC [2]: ≥ 512 µM
MIC [12]: ≥ 44 µM
MIC [13]: 17 µM (≈ 38.3 µg/mL)
MIC [4]: 33 µM (≈ 74.3 µg/mL)
MIC [14]: > 44 µM
MIC [5]: ≥ 512 µM
MIC [6]: ≥ 32 µM

SMILES: CC[C@H](C)[C@H](NC(=O)[C@H](CC(C)C)NC(=O)[C@H](CCCCN)NC(=O)[C@H](CCSC)NC(=O)[C@@H](NC(=O)[C@H](C)NC(=O)[C@H](C)NC(=O)[C@H](CCCN=C(N)N)NC(=O)[C@H](CCCCN)NC(=O)[C@H](Cc1ccccc1)NC(=O)[C@H](Cc1ccccc1)NC(=O)[C@H](CC(C)C)NC(=O)[C@@H](NC(=O)[C@H](C)NC(=O)CNC(=O)[C@@H](NC(=O)[C@H](CO)NC(=O)[C@@H]1CCCN1C(=O)[C@@H](NC(=O)[C@@H](N)CO)C(C)C)C(C)C)C(C)C)C(C)C)C(=O)O [SVPSVGAVLFFKRAAVMKLI]
MIC (Bacillus anthracis): ≥ 120 µM
MIC (Staphylococcus aureus): > 120 µM
MIC (Escherichia coli): > 120 µM
MIC (Bacillus cereus): ≥ 120 µM

SMILES: CC(C)C[C@H](NC(=O)[C@@H](N)Cc1ccccc1)C(=O)N[C@@H](CO)C(=O)N[C@@H](Cc1ccccc1)C(=O)N1CCC[C@H]1C(=O)N[C@H](C(=O)N[C@H](C(=O)N[C@@H](CCCCN)C(=O)N[C@H](C(=O)N[C@@H](Cc1ccc(O)cc1)C(=O)N[C@@H](Cc1ccccc1)C(=O)N1CCC[C@H]1C(=O)N[C@@H](Cc1cnc[nH]1)C(=O)N[C@@H](Cc1ccccc1)C(=O)O)[C@@H](C)O)[C@@H](C)O)[C@@H](C)O [FLSFPTTKTYFPHF]
MIC (Listeria innocua): 1 µM (≈ 1.73 µg/mL)
MIC (Escherichia coli): 9 µM (≈ 15.6 µg/mL)
MIC [15]: 9 µM (≈ 15.6 µg/mL)
MIC (Micrococcus luteus A270): 5 µM (≈ 8.67 µg/mL)

Other lines, results leading:

MIC (Staphylococcus aureus): 58.3 µM (≈ 128 µg/mL)
MIC [3]: 0.911 µM (≈ 2 µg/mL)
MIC [9]: 29.1 µM (≈ 64 µg/mL)
MIC (Enterobacter cloacae): ≥ 58.3 µM
MIC [10]: 1.82 µM (≈ 4 µg/mL)
MIC (Bacillus subtilis): 29.1 µM (≈ 64 µg/mL)
MIC [4]: 3.64 µM (≈ 8 µg/mL)
MIC (Escherichia coli): 29.1 µM (≈ 64 µg/mL)
MIC [11]: 29.1 µM (≈ 64 µg/mL)
MIC (Pseudomonas aeruginosa): 7.29 µM (≈ 16 µg/mL)
SMILES: CC(C)C[C@H](NC(=O)[C@H](CCCCN)NC(=O)[C@H](CCCN=C(N)N)NC(=O)[C@H](Cc1ccccc1)NC(=O)[C@H](Cc1ccccc1)NC(=O)[C@H](CCCCN)NC(=O)[C@H](CCCCN)NC(=O)[C@H](Cc1ccccc1)NC(=O)[C@H](CCCN=C(N)N)NC(=O)[C@H](CCCCN)NC(=O)[C@@H](N)C(C)C)C(=O)N[C@@H](CCCCN)C(=O)N[C@@H](CCCCN)C(=O)N[C@@H](CO)C(=O)N[C@H](C(=O)N[C@@H](CCCCN)C(=O)N[C@@H](CCCCN)C(N)=O)C(C)C [VKRFKKFFRKLKKSVKK]

MIC (Listeria innocua): ≥ 187 µM
MIC (Escherichia coli): 46.8 µM (≈ 31.3 µg/mL)
MIC (Micrococcus luteus A270): ≥ 46.8 µM
SMILES: CC(C)C[C@H](NC(=O)[C@H](CO)NC(=O)[C@H](Cc1cnc[nH]1)NC(=O)[C@H](CO)NC(=O)[C@H](CC(C)C)NC(=O)[C@@H](N)CC(C)C)C(=O)O [LLSHSL]

MIC (Staphylococcus aureus): 61.9 µM (≈ 128 µg/mL)
MIC [3]: 0.967 µM (≈ 2 µg/mL)
MIC [9]: 31 µM (≈ 64 µg/mL)
MIC (Enterobacter cloacae): 31 µM (≈ 64 µg/mL)
MIC [10]: 1.93 µM (≈ 4 µg/mL)
MIC (Bacillus subtilis): 31 µM (≈ 64 µg/mL)
MIC [4]: 1.93 µM (≈ 4 µg/mL)
MIC (Escherichia coli): 31 µM (≈ 64 µg/mL)
MIC [11]: 31 µM (≈ 64 µg/mL)
MIC (Pseudomonas aeruginosa): 7.74 µM (≈ 16 µg/mL)
SMILES: CC(C)C[C@H](NC(=O)[C@H](CCCCN)NC(=O)[C@H](CCCN=C(N)N)NC(=O)[C@H](Cc1ccccc1)NC(=O)[C@H](Cc1ccccc1)NC(=O)[C@H](CCCCN)NC(=O)[C@H](CCCCN)NC(=O)[C@H](Cc1ccccc1)NC(=O)[C@H](CCCN=C(N)N)NC(=O)[C@H](CCCCN)NC(=O)[C@@H](N)C(C)C)C(=O)N[C@@H](CCCCN)C(=O)N[C@@H](CCCCN)C(=O)N[C@@H](CO)C(=O)N[C@H](C(=O)N[C@@H](CCCCN)C(N)=O)C(C)C [VKRFKKFFRKLKKSVK]

MIC (Staphylococcus aureus): 8.25 µM (≈ 16 µg/mL)
MIC [12]: 9.67 µM (≈ 18.7 µg/mL)
MIC [3]: 0.516 µM (≈ 0.999 µg/mL)
MIC [9]: 16.5 µM (≈ 32 µg/mL)
MIC (Enterobacter cloacae): 4.12 µM (≈ 8 µg/mL)
MIC [10]: 1.03 µM (≈ 2 µg/mL)
MIC [13]: ≥ 51.6 µM
MIC (Bacillus subtilis): ≥ 38.7 µM
MIC (Escherichia coli): 8.25 µM (≈ 16 µg/mL)
MIC [11]: ≥ 33 µM
MIC (Pseudomonas aeruginosa): 8.25 µM (≈ 16 µg/mL)
SMILES: CC(C)C[C@H](NC(=O)[C@H](CCCCN)NC(=O)[C@H](CCCN=C(N)N)NC(=O)[C@H](Cc1ccccc1)NC(=O)[C@H](Cc1ccccc1)NC(=O)[C@H](CCCCN)NC(=O)[C@H](CCCCN)NC(=O)[C@H](Cc1ccccc1)NC(=O)[C@H](CCCN=C(N)N)NC(=O)[C@H](CCCCN)NC(=O)[C@@H](N)C(C)C)C(=O)N[C@@H](CCCCN)C(=O)N[C@@H](CCCCN)C(=O)N[C@@H](CO)C(=O)N[C@H](C(N)=O)C(C)C [VKRFKKFFRKLKKSV]

— DBAASP
